Results published in patent US4644063A, “1,3-oxazolidine-2-one derivatives” (Nippon Chemiphar Co., Ltd., priority 1984, dated 1987).
Where a name gives a salt, the structure may show the parent alone.

Legend:
glutamic acid = details: in higher animals; cited from earlier work
higher animals = details: Oleny et al; cited from earlier work
[1] = tested on: Glutamic Acid at Neuromuscular Junctions of Crayfish (opener muscles of the first walking legs); assay: Blocking effects against Glutamic Acid at Neuromuscular Junctions of Crayfish; details: 5-minute pretreatment, L-glutamic acid 10^-4 M
[2] = tested on: Anemic Decerebrate Rigidity Sample (EMG, M. triceps brachii); assay: Effects on Anemic Decerebrate Rigidity Sample (suppression of EMG of forelimb muscle); type: in vivo, Wistar male rats; details: iv, 10 min; rat, 3 mg/kg in physiological saline through femoral vein, 10 minutes after administration; read-out: Suppression rate
[3] = Acute Toxicity (up-and-down method); details: mouse, in vivo, iv (caudal vein), ddN male mice
Procedure: Using ddN male mice, the acute toxicity level of each test compound was determined in accordance with an up-and-down method. Some of the test compounds used were dissolved in physiological saline and administered through the caudal vein.

[4] = reported by Nikolova; cited from earlier work
[5] = tested on: neuraxial muscle relaxing effect; assay: Neuraxial muscle relaxing effect, experiment conducted by the inventors; type: in vivo
[6] = test compound 2 × 10^-5 M, 20 µM
[7] = test compound 2 × 10^-4 M, 200 µM

SMILES | inhibition in vivo at 3 mg/kg [2] [%] | LD50 [3] [mg/kg] | also measured
N[C@@H](Cn1oc(=O)[nH]c1=O)C(=O)O [quisqualic acid] | – | – | agonist for glutamic acid (glutamic acid): extremely strong agonist; effects induced from administration (higher animals): dystropy, rigidity, tremor, convulsion and the like are induced
CCCC[C@@H]1[C@@H](c2ccccc2)OC(=O)N1CCCN1CCCCC1 (racemic) [Compound 35, (4RS,5RS)-4-butyl-5-phenyl-3-(3-piperidinopropyl)-1,3-oxazolidine-2-one] | – | – | Blocking rate against glutamic acid [1, 6]: 68%
CC(C)[C@@H]1[C@H](c2ccccc2)OC(=O)N1CCCN1CCCCC1 (racemic) [Compound 1, (4RS,5SR)-4-(1-methylethyl)-5-phenyl-3-(3-piperidinopropyl)-1,3-oxazolidine-2-one] | 12 | 29.7 | –
CC(C)[C@@H]1[C@@H](c2ccccc2)OC(=O)N1CCCN1CCCCC1 (racemic) [Compound 2, (4RS,5RS)-4-(1-methylethyl)-5-phenyl-3-(3-piperidinopropyl)-1,3-oxazolidine-2-one] | 19.8 | 18.8 | –
CC1C(c2ccccc2)OC(=O)N1CCN1CCCCC1 (stereo not shown) [4-methyl-5-phenyl-3-(2-piperidinoethyl)-1,3-oxazolidine-2-one] | – | – | analgesic effect [4]: has an analgesic effect; anti-convulsion effect [4]: exerts no anti-convulsion; neuraxial muscle relaxing effect [4]: exerts no anti-convulsion nor neuraxial muscle relaxing effects; neuraxial muscle relaxing effect [5]: extremely weak
CC(C)C[C@@H]1[C@H](c2ccc(F)cc2)OC(=O)N1CCCN1CCCCC1 (racemic) [Compound 29, (4RS,5SR)-5-(4-fluorophenyl)-4-(2-methylpropyl)-3-(3-piperidinopropyl)-1,3-oxazolidine-2-one] | 9.9 | 66.1 | –
CCCCCC[C@@H]1[C@@H](c2ccccc2)OC(=O)N1CCCN1CCCCC1 (racemic) [Compound 41, (4RS,5RS)-4-hexyl-5-phenyl-3-(3-piperidinopropyl)-1,3-oxazolidine-2-one] | – | – | Blocking rate against glutamic acid [1, 6]: 69%
CC(C)C[C@H]1[C@H](c2ccccc2)OC(=O)N1CCCN1CCCCC1 [Compound 7, (4S,5S)-4-(2-methylpropyl)-5-phenyl-3-(3-piperidinopropyl)-1,3-oxazolidine-2-one] | 64.8 | 30.4 | Blocking rate against glutamic acid [1, 7]: 92%
CC(C)C[C@@H]1[C@H](c2ccccc2)OC(=O)N1CCCN1CCCC1 (racemic) [Compound 13, (4RS,5SR)-4-(2-methylpropyl)-5-phenyl-3-(3-pyrrolidinopropyl)-1,3-oxazolidine-2-one] | – | 75.1 | Blocking rate against glutamic acid [1, 7]: 80%
CC(C)C[C@@H]1[C@@H](c2ccccc2)OC(=O)N1CCCN1CCCCC1 [Compound 8, (4R,5R)-4-(2-methylpropyl)-5-phenyl-3-(3-piperidinopropyl)-1,3-oxazolidine-2-one] | 12 | – | –
CC(C)C[C@@H]1[C@@H](c2ccccc2)OC(=O)N1CCCN1CCCCC1 (racemic) [Compound 4, (4RS,5RS)-4-(2-methylpropyl)-5-phenyl-3-(3-piperidinopropyl)-1,3-oxazolidine-2-one] | 21.2 | 29.9 | Blocking rate against glutamic acid [1, 7]: 88%
CCCC[C@@H]1[C@H](c2ccccc2)OC(=O)N1CCCN1CCCCC1 (racemic) [Compound 36, (4RS,5SR)-4-butyl-5-phenyl-3-(3-piperidinopropyl)-1,3-oxazolidine-2-one] | – | – | Blocking rate against glutamic acid [1, 6]: 53%
Cc1ccc([C@@H]2OC(=O)N(CCCN3CCCCC3)[C@@H]2CC(C)C)cc1 (racemic) [Compound 25, (4RS,5SR)-5-(4-methylphenyl)-4-(2-methylpropyl)-3-(3-piperidinopropyl)-1,3-oxazolidine-2-one] | 10.9 | 34.9 | –
C[C@@H]1[C@H](c2ccccc2)OC(=O)N1CCN1CCCC1.Cl (racemic) [Comparative compound 4, (4RS,5SR)-4-methyl-5-phenyl-3-(2-pyrrolidinoethyl)-1,3-oxazolidine-2-one hydrochloride, reference compound] | 1 | – | Blocking rate against glutamic acid [1, 7]: 45%
CC(C)[C@@H]1[C@@H](c2ccccc2)OC(=O)N1CCCN1CCCC1 (racemic) [Compound 10, (4RS, 5RS)-4-(1-methylethyl)-5-phenyl-3-(3-pyrrolidinopropyl)-1,3-oxazolidine-2-one] | 18.7 | 54.6 | –
CC(C)C[C@H]1[C@@H](c2ccccc2)OC(=O)N1CCCN1CCCCC1 [Compound 5, (4S,5R)-4-(2-methylpropyl)-5-phenyl-3-(3-piperidinopropyl)-1,3-oxazolidine-2-one] | 37.7 | 69 | Blocking rate against glutamic acid [1, 7]: 91%
CC(C)C[C@@H]1[C@@H](c2ccccc2)OC(=O)N1CCCN1CCCC1 (racemic) [Compound 14, (4RS,5RS)-4-(2-methylpropyl)-5-phenyl-3-(3-pyrrolidinopropyl)-1,3-oxazolidine-2-one] | 10.2 | 53.2 | –
C[C@@H]1[C@@H](c2ccccc2)OC(=O)N1CCN1CCCC1 (racemic) [Comparative compound 5, (4RS,5RS)-4-methyl-5-phenyl-3-(2-pyrrolidinoethyl)-1,3-oxazolidine-2-one hydrochloride, reference compound] | 3 | – | –
CC(C)CC[C@@H]1[C@H](c2ccccc2)OC(=O)N1CCCN1CCCCC1 (racemic) [Compound 40, (4RS,5SR)-4-(3-methylbutyl)-5-phenyl-3-(3-piperidinopropyl)-1,3-oxazolidine-2-one] | – | 53.6 | Blocking rate against glutamic acid [1, 6]: 61%
C/C(=C/C=C/[C@@H](C)C(=O)O)[C@H]1CN[C@H](C(=O)O)[C@H]1CC(=O)O [domoic acid] | – | – | agonist for glutamic acid (glutamic acid): extremely strong agonist; effects induced from administration (higher animals): dystropy, rigidity, tremor, convulsion and the like are induced
CC(C)C[C@@H]1[C@H](c2ccccc2)OC(=O)N1CCCN1CCCCC1 (racemic) [Compound 3, (4RS,5SR)-4-(2-methylpropyl)-5-phenyl-3-(3-piperidinopropyl)-1,3-oxazolidine-2-one] | 18 | 55.5 | Blocking rate against glutamic acid [1, 7]: 89%
CC(C)C[C@@H]1[C@H](c2ccccc2)OC(=O)N1CCCN1CCCCC1 [Compound 6, (4R,5S)-4-(2-methylpropyl)-5-phenyl-3-(3-piperidinopropyl)-1,3-oxazolidine-2-one] | 14.9 | – | –
CC(C)C[C@H]1[C@@H](c2ccccc2)OC(=O)N1CCCN1CCCCCC1 [Compound 17, (4S,5R)-4-(2-methylpropyl)-3-[3-(perhydroazepine-1-yl-)propyl]-5-phenyl-1,3-oxazolidine-2-one] | 93 | 40.1 | Blocking rate against glutamic acid [1, 7]: 90%
CCCCC[C@@H]1[C@@H](c2ccccc2)OC(=O)N1CCCN1CCCCC1 (racemic) [Compound 37, (4RS,5RS)-4-pentyl-5-phenyl-3-(3-piperidinopropyl)-1,3-oxazolidine-2-one] | – | – | Blocking rate against glutamic acid [1, 6]: 58%
Cc1ccc(C(=O)C(C)CN2CCCCC2)cc1 (stereo not shown) [Comparative compound 1, toluperisone hydrochloride, reference compound] | 4.8 | – | –
C[C@@H]1[C@@H](c2ccccc2)OC(=O)N1CCN1CCCCC1 (racemic) [Comparative compound 3, (4RS,5RS)-4-methyl-5-phenyl-3-(2-piperidinoethyl)-1,3-oxazolidine-2-one hydrochloride, reference compound] | 2.2 | – | –
N[C@H](C(=O)O)c1cc(=O)[nH]o1 [ibotenic acid] | – | – | agonist for glutamic acid (glutamic acid): extremely strong agonist; effects induced from administration (higher animals): dystropy, rigidity, tremor, convulsion and the like are induced
C=C(C)[C@H]1CN[C@H](C(=O)O)[C@H]1CC(=O)O [kainic acid] | – | – | agonist for glutamic acid (glutamic acid): extremely strong agonist; effects induced from administration (higher animals): dystropy, rigidity, tremor, convulsion and the like are induced
COc1ccc([C@@H]2OC(=O)N(CCCN3CCCCC3)[C@@H]2CC(C)C)cc1 (racemic) [Compound 27, (4RS,5SR)-5-(4-methoxyphenyl)-4-(2-methylpropyl)-3-(3-piperidinopropyl)-1,3-oxazolidine-2-one] | 8.4 | 39.8 | –
C[C@@H]1[C@H](c2ccccc2)OC(=O)N1CCN1CCCCC1.Cl (racemic) [Comparative compound 2, (4RS,5SR)-4-methyl-5-phenyl-3-(2-piperidinoethyl)-1,3-oxazolidine-2-one hydrochloride, reference compound] | 3.6 | – | Blocking rate against glutamic acid [1, 7]: 0%
